According to US20210353784A1, “DETECTING AND TREATING CANCERS USING CELL PENETRANT MTP53-OLIGOMERIZATION-DOMAIN PEPTIDE” (priority 2020, published 2021):
Ends that are not written are not given here.

Test system: MDA-MB-468 and MCF7 cells
Assay: Live cell imaging staining with Cy5 conjugated first and second-generation TAT-mtp53ODP
Format: cell-based, Human
Conditions: 500 nM, 4 h incubation
Description: FIG. 7 quantifies the results of live cell imaging staining of MDA-MB-468 and MCF7 cells with 4 h incubation of 500 nM Cy5 conjugated first (TAT-mtp53ODP-35mer, SEQ ID NO: 3) and second-generation (TAT-mtp53ODP-27mer (SEQ ID NO: 7) and TAT-mtp53ODP-37mer (SEQ ID NO: 8)) after 4 h incubation. Cells were imaged by confocal microscopy. Quantification of Cy5 conjugated TAT-mtp53ODP uptake in MDA-MB-468 cells and MCF7 cells was conducted by Nikon Element analysis. […] Three independent experiments with biological replicate were performed. Statistical analyses were conducted in Graphpad Prism 9. Results are expressed as mean+SEM. Statistical significance for hypothesis testing was performed by Student's t-test. The following format was used to assign significance based on P-value: *p-value ≤0.05, ** p-value […] p-value ≤0.001.
Live cell imaging staining was also performed on second-generation peptides based on Cy5-conjugated SEQ ID NO: 7 and SEQ ID NO: 8. FIG. 7 depicts the results of live cell imaging staining of MDA-MB-468 and MCF7 cells with 4 h incubation of 500 nM Cy5 conjugated first (TAT-mtp53ODP-35mer, SEQ ID NO: 3) and second-generation (TAT-mtp53ODP-27mer (SEQ ID NO: 7) and Cy5-conjugated TAT-mtp53ODP-37mer (SEQ ID NO: 8)) after 4 h incubation. Cells were imaged by confocal microscopy. A scrambled peptide was included as a control. […]

Row | Sequence | activity relative to TAT-mtp53ODP-35mer (SEQ ID NO: 3)
1 | GRKKRRQRRGEYFTLQIRGRERFEMFR (also: Cy5 conjugate) [TAT-mtp53ODP-27mer, Cy5 conjugated second-generation TAT-mtp53ODP peptide] | reduced activity
2 | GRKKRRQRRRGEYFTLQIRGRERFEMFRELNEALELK (also: Cy5 conjugate) [TAT-mtp53ODP-37mer, Cy5 conjugated second-generation TAT-mtp53ODP peptide] | enhanced activity
